Where two headings read alike, the source gives them in different places.
Assays:
[1] = system: Caenorhabditis elegans; experiment: Primary screen, infrared-based (WMicroTracker ONE) C. elegans L4 motility assay at 40 µM; assay type: cell-based, Caenorhabditis elegans (Bristol N2); conditions: primary screen at 40 µM; for C. elegans NOTES (HIT): hit if motility < 25%
Experimental: (§1) Methods to cultivate C. elegans (Bristol N2) and synchronize growth to the L4 stage were as described. WMicroTracker ONE (Phylumtech, Argentina) detects movement by measuring the scattering of infrared light beams that are projected into each well of a microtiter plate (two 880 nm beams/well in a 96w plate).
(§2) Synchronized C. elegans L4 were detached from agar and collected in M9 buffer. Worms were centrifuged for 1 min at 1,900 g and washed in S medium to decrease the concentration of E. coli OP50 that might interfere with infrared detection. Control and assay compounds (1 µL) in DMSO (Fisher Scientific, Cat# BP231-100) were spotted into each well of a clear, flat-bottomed 96-well polystyrene plate (Fisherbrand, Cat# FB012931). DMSO (1%) was used as the negative control. Approximately 70 L4 in 100 µL S medium were added per well. First pass screens employed 40 µM compound, and motility was measured every 20 min for 24 h in the WMicroTracker ONE reader in which the temperature was 25 ± 1 °C. Motility was normalized relative to the DMSO controls. Hits were defined as compounds that decreased motility to ≤ 25% of that in DMSO control worms.

[2] = HEK293 cytotoxicity assay (resazurin); assay type: cell-based, Human; conditions: human
Experimental: Potent compounds were also evaluated for cytotoxicity against HEK293 cells. Cells were cultured at 37 °C and 5% in Dulbecco’s Modified Eagle Medium (DMEM; Gibco, Cat#: 11965-092) containing 10% heat-inactivated fetal bovine serum (FBS; Omega Scientific Inc., Cat#: FB02) and 1% penicillin-streptomycin (ThermoFisher Scientific, Cat#: 15140122), and then sub-cultured when 60–80% confluent. Cells were detached with 0.05% trypsin/EDTA (ThermoFisher Scientific, Cat#: 25300054) and centrifuged for 5 min at 1,900 g.
Screens were performed over 11 compound concentrations (0.00007–40 µM) that had been prepared in DMSO. Aliquots (1 µL) were spotted into each well of a clear-bottomed, 96-well, polystyrene assay plate (Fisher Scientific, Cat#: FB012931). Approximately 20,000 HEK293 cells in 99 µL of the above supplemented DMEM were then added to each well. After 46 h at 37 °C and 5% CO2, 20 µL 0.5 mM resazurin (ThermoFisher Scientific, Cat#: B21187.03) were added and the incubation continued for 2 h at 37 °C [27]. Fluorescence was measured in a 2104 EnVision Multilabel Plate Reader (PerkinElmer) at 560 and 590 nm excitation and emission wavelengths, respectively. Raw data were exported from the EnVision Workstation software (version 1.13.3009.1401; PerkinElmer) into Prism GraphPad, and the half-maximal cytotoxic concentration (CC50) values were calculated using a non-linear regression curve.

[3] = system: Caenorhabditis elegans; experiment: Concentration response C. elegans L4 motility assay (WMicroTracker ONE), EC50; assay type: cell-based, Caenorhabditis elegans (Bristol N2); conditions: Caenorhabditis elegans, read-out: EC50 (motility)
Experimental: as §1, §2
For potent compounds, concentration response assays (nine concentrations: 0.005 µM to 40 or 100 µM) were conducted to measure the half-maximal effective concentration (EC50). Compounds were serially diluted in DMSO using 96-well, v-bottomed polypropylene dilution plates (ThermoFisher Scientific, Cat#: 249944) and 1 µL aliquots spotted into each well of the assay plates. Motility was measured as described above. Prism GraphPad, Version 8.0 (GraphPad Software, San Diego, CA) was used to calculate EC50 values using a non-linear sigmoidal four parameter logistic curve.

[4] = C. elegans L4, WMicroTracker ONE
[5] = HEK293 cell viability after 48 h, read-out: CC50

| Compound | C. elegans Mean motility vs. DMSO control (%) [1, 4] [%] | C. elegans Mean motility vs. DMSO control (%) ([1]; C. elegans L4) | further results |
| --- | --- | --- | --- |
| CC(C)C[C@H](NC(=O)[C@@H](NC(=O)c1cccc(-c2ccccc2)n1)[C@@H](C)O)B(O)O [MMV690548] | 97.97 |  |  |
| O=C(Nc1ncccc1O)c1ccc(S(=O)(=O)NCCc2cccs2)cc1 [MMV1435700] |  | 75.25 |  |
| abamectin [reference compound] |  | 3.6 | C. elegans NOTES (HIT) [1]: HIT |
| C[C@@H](c1nc(-c2ccc(C#N)cc2)cs1)[C@](O)(Cn1cncn1)c1ccc(F)cc1F [MMV1634362] |  | 84.55 |  |
| O=C(NC1CCCc2c1[nH]c1ccc(Cl)cc21)c1ccccn1 (stereo not drawn) [MMV690621] |  | 85.65 |  |
| O=C(Nc1cnc2ccccc2c1)c1ccccc1C(=O)c1ccc(F)cc1 [MMV1760745] |  | 93.6 |  |
| CCC(C)n1ncn(-c2ccc(N3CCN(c4ccc(OCC5COC(Cn6cncn6)(c6ccc(Cl)cc6Cl)O5)cc4)CC3)cc2)c1=O (stereo not drawn) [MMV637528] | 97.65 |  |  |
| CO[C@H]1C[C@H](O[C@H]2[C@H](C)O[C@@H](O[C@@H]3/C(C)=C/C[C@@H]4C[C@@H](C[C@]5(C=C[C@H](C)[C@@H](C6CCCCC6)O5)O4)OC(=O)[C@@H]4C=C(C)[C@@H](O)[C@H]5OC/C(=C\C=C\[C@@H]3C)[C@]54O)C[C@@H]2OC)O[C@@H](C)[C@@H]1O [doramectin, reference compound] |  | 6.74 | C. elegans NOTES (HIT) [1]: HIT |
| CCCCc1oc2ccccc2c1C(=O)c1cc(I)c(OCCN(CC)CC)c(I)c1 [MMV001992] |  | 67.16 |  |
| Cc1ccc(NC(=O)c2ccc(CN3CCN(C)CC3)cc2)cc1Nc1nccc(-c2cccnc2)n1 [MMV009948] | 98.37 |  |  |
| O=C(Nc1ncccc1O)c1ccc(Cn2cccn2)cc1 [MMV1266067] |  | 85.15 |  |
| Cc1onc(-c2ccccc2)c1-c1ccc(S(N)(=O)=O)cc1 [MMV002260] |  | 95.37 |  |
| CN1CCCC1CCO[C@](C)(c1ccccc1)c1ccc(Cl)cc1 (stereo partly drawn) [MMV637229] | 98.88 |  |  |
| O=C(NC1CCN(CCOc2ccc(Cl)cc2)CC1)c1c[nH]c2ccncc2c1=O [MMV1798946] | 99.33 |  |  |
| milbemectin [reference compound] |  | 1.69 | C. elegans NOTES (HIT) [1]: HIT |
| CO[C@H]1C[C@H](O[C@@H]2/C(C)=C/C[C@@H]3C[C@@H](C[C@]4(CC[C@H](C)[C@@H](C5CCCCC5)O4)O3)OC(=O)[C@@H]3C=C(C)/C(=N/O)[C@H]4OC/C(=C\C=C\[C@@H]2C)[C@]43O)O[C@@H](C)[C@@H]1O [selamectin, reference compound] |  | 2.31 | CC50 at 48 h [2, 5]: 9.88 ± 4.26 µM; C. elegans NOTES (HIT) [1]: HIT; EC50 ([3]; C. elegans L4, after 3 h): 0.722 ± 0.555 µM |
| CC(=O)N1CCN(c2ccc(OC[C@@H]3CO[C@@](Cn4ccnc4)(c4ccc(Cl)cc4Cl)O3)cc2)CC1 [MMV637533] | 113.2 |  |  |
| C[C@H](Cn1cnc2c(N)ncnc21)OCP(=O)(O)O [MMV1580478] |  | 95.45 |  |
| CCCOc1ccc(C(F)(F)F)cc1NC(=O)c1nc2nccc(C)n2n1 [MMV1262756] |  | 25.74 |  |
| Cn1ccnc1SCC(=O)Nc1ccc(C(=O)Nc2ncccc2O)cc1 [MMV1267536] |  | 64.36 |  |
| NS(=O)(=O)c1cc2c(cc1Cl)N=CNS2(=O)=O [MMV001901] | 96.35 |  |  |
| CCn1cnc2c(N3CCC[C@H](c4ccncc4)C3)ncnc21 [MMV1752548] |  | 78.79 |  |

| Compound | C. elegans Mean motility vs. DMSO control (%) [1, 4] [%] | C. elegans Mean motility vs. DMSO control (%) ([1]; C. elegans L4) | further results |
| --- | --- | --- | --- |
| COc1ccc(Cc2nccc3cc(OC)c(OC)cc23)cc1OC [MMV002798] | 96.9 |  |  |
| Cc1ncc([N+](=O)[O-])n1CC(C)O (stereo not drawn) [MMV002287] |  | 78.09 |  |
| CC(C)(C)NC(=O)N[C@H](C(=O)N1C[C@H]2[C@@H]([C@H]1C(=O)NC(CC1CCC1)C(=O)C(N)=O)C2(C)C)C(C)(C)C (stereo partly drawn) [MMV1580497] |  | 86.33 |  |
| Cn1cc(CN2CCc3c(c(C(=O)NCc4nccs4)nn3Cc3ccccc3)C2)c2ccccc21 [MMV1167451] |  | 84.51 |  |
| c1ccc(-c2ccnc(C3CCN(CC45CNCC4C5)CC3)n2)cc1 (stereo not drawn) [MMV1797658] |  | 81.14 |  |
| CCC1=C(c2ccc(C)cc2)S(=O)(=O)N=C1N1CCC(C(=O)NCCN2CCCC[C@@H]2C)CC1 [MMV1704710] | 104.04 |  |  |
| O[C@@H](c1cc(C(F)(F)F)nc2c(C(F)(F)F)cccc12)[C@H]1CCCCN1 [MMV000014] |  | 88.32 |  |
| OC(Cn1cncn1)(Cn1cncn1)c1ccc(F)cc1F [MMV002337] | 103.8 |  |  |
| CNCc1[cH-]ccc1CNc1ccnc2cc(Cl)ccc12.[Fe+2].c1cc[cH-]c1 [MMV892669] | 102.88 |  |  |
| O[C@@H](c1cc(C(F)(F)F)nc2c(C(F)(F)F)cccc12)[C@H]1CCCCN1 [MMV000016] | 108.37 |  |  |
| CC(C)Oc1ccc(-c2nc(-c3cccc4c3CC[C@@H]4NCCO)no2)cc1C#N [MMV1580492] |  | 83.52 |  |
| CCOCn1c(-c2ccc(Cl)cc2)c(C#N)c(Br)c1C(F)(F)F [chlorfenapyr] |  | 0.26 | CC50 at 48 h [2, 5]: 20.9 ± 7.34 µM; C. elegans NOTES (HIT) [1]: HIT; EC50 ([3]; C. elegans L4, after 12 h): 1.65 ± 0.449 µM |
| CO[C@@H](C(=O)N1Cc2[nH]nc(NC(=O)c3ccc(N4CCN(C)CC4)cc3)c2C1)c1ccccc1 [MMV676600] | 100.25 |  |  |
| COc1cc2c3cc1Oc1c(OC)c(OC)cc4c1C(Cc1ccc(O)c(c1)Oc1ccc(cc1)CC3N(C)CC2)N(C)CC4.Cl (stereo not drawn) [MMV007474] |  | 94.2 |  |
| CO/N=C1\C[C@]2(C[C@@H]3C[C@@H](C/C=C(\C)C[C@@H](C)/C=C/C=C4\CO[C@@H]5[C@H](O)C(C)=C[C@@H](C(=O)O3)[C@]45O)O2)O[C@H](/C(C)=C/C(C)C)[C@H]1C [moxidectin, reference compound] |  | 0.28 | CC50 at 48 h [2]: 13.3 ± 9.47 µM; C. elegans NOTES (HIT) [1]: HIT; EC50 ([3]; 1 h): 0.128 ± 0.045 µM |
| O=C(Nc1ncccc1O)c1ccc(N2CCOCC2)nc1 [MMV1103183] | 99.33 |  |  |
| CC[C@@H](C(=O)[C@@H](C)[C@@H](O)[C@H](C)[C@@H]1O[C@@H]([C@@H](CC)C(=O)O)CC[C@@H]1C)[C@H]1O[C@]2(C=C[C@@H](O)[C@]3(CC[C@@](C)([C@H]4CC[C@](O)(CC)[C@H](C)O4)O3)O2)[C@H](C)C[C@@H]1C [MMV1804312] | 96.95 |  |  |
| CC(C)(C)NC(=O)[C@@H]1CN(Cc2cccnc2)CCN1C[C@@H](O)C[C@@H](Cc1ccccc1)C(=O)N[C@H]1c2ccccc2C[C@H]1O [MMV659198] | 103.91 |  |  |
| CC[C@@H]([C@H](C)O)n1ncn(-c2ccc(N3CCN(c4ccc(OC[C@@H]5CO[C@@](Cn6cncn6)(c6ccc(F)cc6F)C5)cc4)CC3)cc2)c1=O [MMV688774] |  | 86.8 |  |
| CC(=O)Oc1ccccc1C(=O)Nc1ncc([N+](=O)[O-])s1 [MMV688991] | 112.67 |  |  |
| Oc1ccccc1CCN[C@H]1CCc2ccc(F)cc21 [MMV1726212] |  | 87.88 |  |
| eprinomectin [reference compound] |  | 13.19 | C. elegans NOTES (HIT) [1]: HIT |

Source: publication PMC12502323, “Discovery of small molecules with anthelmintic potential in the Medicines for Malaria Venture’s COVID and Global Health Priority Boxes using an infrared-based assay for Caenorhabditis elegans motility” (BMC Research Notes, 2025)
